Experimental data as given in patent US6060475A, “Substituted pyrazin-2-yl-sulphonamide-(3-pyridyl) compounds and uses thereof” (Zeneca Limited, priority 1995, dated 2000).

Key:
[1] = test system: Human ETA or ETB receptors; assay: Test A: inhibition of [125I]-Endothelin-1 binding to MEL cell membranes expressing recombinant receptor; conditions: receptor sub-type (ETA or ETB) not given
Text: Test A: The endothelin receptor antagonist activity of compounds of formula I may be assessed in vitro by their ability to inhibit binding of [^125 I]-Endothelin-1 to its receptors. Human ETA or ETB receptors (sub-types of the endothelin receptor) were expressed in Mouse Erythroleukemic Cells (MEL cells) by using standard molecular techniques (for example, as described by Sambrook J., Fritsch E. F. & Maniatis T. (1989) Molecular Cloning: A Laboratory Manual, 2nd Edition, Cold Spring Harbor Press, USA). cDNA sequences encoding the human ETA and ETB receptor (Hosoda K. et al (1991), FEBS Lett., 287, 23-26 and Sakamoto A. et al, (1991), Biochem. Biophys Res. Comm., 178, 656-663) are subcloned into pBluescript vector followed by insertion into the MEL cell expression vector pEV as described by Needham et al (1992), Nuc. Acids Res., 20, 997-1003. […]
[^125 I]-Endothelin-1 binding to MEL cell membranes was measured in incubation buffer containing 50 mM Tris HCl 1 mM CaCl2, 0.05% polyoxyethylenesorbitan monolaurate, 0.1% Bovine Serum Albumin (BSA), 0.02% sodium azide pH 7.4 at 30° C. after 180 minutes incubation. […] Nonspecific binding was measured in the presence of 100 nM unlabelled Endothelin-1. […] The filter discs were punched out and counted in a gamma counter. Compounds are tested in triplicate over a range of concentrations and IC50 (or pIC50) values calculated.

[2] = test system: pressor response induced by intravenously-administered proendothelin-1; assay: Test D: antagonism of pressor response to intravenous proendothelin-1 in conscious rat after oral dosing; assay type: in vivo; conditions: rats, dosed orally at 3 mg/kg, determined one hour after administration, n=5, 30 mmHg change level
Text: Test D: This in vivo test involves the measurement of the antagonist effect of the test compound against the pressor response induced by intravenously-administered proendothelin-1 in a conscious rat preparation.
Male rats (260-290 g) are anaesthetised with Saffan administered via the tail vein. The right jugular vein and carotid artery are isolated and catheters filled with heparin implanted. These are exteriorised at the back of the neck using a metal trochar and the neck incision closed with autoclips. Rats are housed individually with free access to food and water during the recovery phase. Later in the day, food is removed and the rats are fasted overnight with free access to water. The following day the rats are placed in perspex restraining tubes and the arterial catheter drained and connected to a pressure transducer for measurement of mean arterial pressure. Following a ten minute stabilization period, proendothelin-1 (usually 0.3-1.0 nmol kg^-1) is administered cumulatively until a pressor response of 30 mmHg is achieved. The animals are then returned to their cages and allowed to recover for 2 hours. The test compound is administered orally (by gavage) at a known time point during the recovery period. […] Endothelin receptor antagonism is quantified by calculating dose ratio shifts at the 30 mmHg change level.

pIC50 in Test A [1]: 8.6
SMILES: COc1nc(C)cnc1NS(=O)(=O)c1cccnc1-c1ccc(OC(C)C)cc1 [Example 3, 2-(4-isopropoxyphenyl)-N-(3-methoxy-5-methylpyrazin-2-yl)pyridine-3-sulphonamide]
mean dose ratio shift on the pressor response to proendothelin-1 [2]: 2.93
